The results in this text go back to patent publication US20100240754A1, “UNSATURATED FATTY AMINO ACID DERIVATIVES AND USE THEREOF IN DERMAL COSMETOLOGY” (Pierre Fabre Demo-Cosmetique, priority 2007, published 2010).

Series [1] concerns fibroblast cell line L929. Nature of the series: In vitro assay of intracellular OASes (H2DCF-DA probe) after H2O2/iron oxidative stress. It is filed as cell-based, murine. The settings on record: Mus musculus, L929, 3 h pretreatment, H2O2 200 μM / iron 2 mM, read-out: percentage of inhibition of intracellular OAS production (protection); for inhibition at 20 pg/mL: dose 0.02 ng/mL; for inhibition at 0.0002 µg/mL: dose 0.2 ng/mL; for inhibition at 0.002 µg/mL: dose 2 ng/mL; for inhibition at 0.02 µg/mL: dose 20 ng/mL. From the text: We have set up a model for an in vitro study of oxidative stress induced by H2O2/iron, H2O2 which massively generates intracellular OASes by a chain reaction triggered by the oxidation of membrane lipids.
This technique is based on the use of a fluorescent probe, 6-carboxy-2′, 7′ dichlorodihydrofluorescein diacetate, di(acetoxymethyl ester) (H2DCF-DA), which, once it has penetrated the cell, is deacetylated by the intracellular esterases then forming H2DCF. This product is oxidized by intracellular OASes into a highly fluorescent compound: 2′,7′-dichlorofluorescein, (DCF) (Suematsu M et al, 1996, Free Radicals Practical Approach, Punchard ed. P83-99).
Cutaneous murine fibroblast cell line L929.
The tested concentrations are non-cytotoxic concentrations. Cytoxicity was evaluated by the neutral red method, after incubation of the product for 3 hours.
The reference anti-radical product is vitamin E or α-tocopherol (MW: 430.7) (SIGMA, ref.: T-1539).
The mother solution is prepared at 400 mg/mL in DMSO and stored at −20° C. The pretreatment solution is prepared extemporaneously at 400 μg/mL in a culture medium without FCS.
For evaluating unsaturated fatty amino acid derivatives, the dilutions are prepared in the culture medium extemporaneously for a range of concentrations of 0.02, 0.2, 2 and 20 ng/mL.
The cells of the fibroblast line L929 are sown in microplates with 96 wells with a flat bottom in 100 μL of DMEM supplemented with 10% of FCS, and they are then incubated overnight at 37° C. in a humid atmosphere with 5% CO2.
The dilutions of the products to be tested and of the reference molecule are conducted in culture mediums without FCS, and then deposited in 7 wells in an amount of 100 μL per well.
The cells are then incubated for 3 hours at 37° C. in a humid atmosphere with 5% CO2.
The cells are rinsed with PBS 1× in an amount of 100 μL per well. Next they are set to incubate for 30 min at 37° C. in a humid atmosphere with 5% CO2 and with 50 μL of H2DCF-DA probe at 5 μM.
After 30 min in contact with the probe alone, the cells are incubated for 30 min at 37° C. in a humid atmosphere with […] with addition of 25 μL of H2O2 at 800 μM and 25 μL of 8 mM ferrous and ferric iron solution, in order to have final concentrations of 200 μM of H2O2 and 2 mM of ferrous and ferric iron.
The cells are then rinsed with PBS 1× in an amount of 100 μL per well, and then incubated for 30 min at 37° C. in a humid atmosphere with 5% CO2 and with 100 μL of PBS 1×.
These 1 h 30 minutes of incubation at 37° C. allow the intracellular esterases to deacetylate the H2DCF probe, oxidizable by intracellular OASes into DCF; a fluorescent compound, the formation of which is proportional to the amount of intracellular OASes.
The fluorescence intensity is read with the cytofluorimeter at λexcitation=485 nm and λemission=530 nm. It reflects the amount of produced intracellular OASes.
With the below ratio, it is possible to calculate for each concentration of tested product the % of protection against production of intracellular OASes (since the fluorescence intensity or FI expresses intracellular release of OASes).
The values indicated in Table 3 are percentages of inhibition of intracellular OAS production following an exogenous oxidative stress, relatively to <> cells (100%) and to <> cells (0%).

In another series the test system is B16-F10 line. Nature of the series: Synthesis of melanin, colorimetric assay, basal and after alpha MSH stimulation. It is filed as cell-based, murine. The settings on record: B16-F10; for inhibition at 30 µg/mL: Mus musculus, 30 μg/mL. As for the experimental part:
6.1) The modulating effect of unsaturated fatty amino-acid derivatives on melanogenesis was analyzed. For this, a measurement of the synthesis of melanin by a colorimetric assay is carried out on a cell line of murine melanomas: the B16-F10 line.
The effect of the products is investigated in a basal situation and after stimulating melanogenesis by a MSH for determining the depigmenting power.
The level of extracellular and intracellular melanin is then measured by spectrophotometry at a wave length of 405 nm according to the procedure (Meun, Y. J. et al.). The amount of pigment is determined by a standard range of melanin and by analysis on the Microwin software package (Berthold Biotechnologies). An assay of total proteins is conducted for samples of intracellular melanin by the BCA-Copper method at 540 nm. The standard range is produced with a standard protein, BSA (Bovine Albumin Serum).

Another series concerns production of IL8. Nature of the series: Production of interleukin 8 induced in keratinocytes by PMA and calcium ionophore A23187 (ELISA). It is filed as cell-based. The settings on record: Keratinocyte; keratinocytes stimulated with PMA + A23187; read-out: effective dose 50 (DE50), production of IL8. In general terms: An ELISA detects its analyte on a solid surface through an enzyme-linked reagent.

Where two headings read alike, the source gives them in different places.

As to `Cl.NCCC/C=C/C(=O)O` [Compound No. 1, (E)-6-amino-hex-2-enoic acid], in series [1], the inhibition (in general, the relative decrease from the control value, in per cent) at 20 pg/mL stood at 12%; the inhibition at 0.0002 µg/mL worked out at 13%; the inhibition at 0.002 µg/mL turned out to be 5%; the inhibition at 0.02 µg/mL is 1%.
The matching figures for `NCCC/C=C(/F)C(=O)O` [Compound No. 2, (E)-6-amino-2-fluoro-hex-2-enoic acid]: 14%, 19%, 14% and -13%.
For `Cl.NCCCC/C=C/C(=O)O` [Compound No. 4, (E)-7-amino-hept-2-enoic acid] the same measures were 13%, 12%, 8% and -14%.
As for `NCCCCC=C(F)C(=O)O` [Compound No. 5, (Z+E)-7-amino-2-fluoro-hept-2-enoic acid], in series [1], the inhibition at 20 pg/mL is 18%, the inhibition at 0.0002 µg/mL stood at 23%, the inhibition at 0.002 µg/mL is 26% and the inhibition at 0.02 µg/mL came to 23%. In the series with B16-F10 line, the “pigmenting effect, in words” value is recorded as “weaker than that of molecule No. 6”.
`Cl.NCCCCC/C=C/C(=O)O` [Compound No. 7, (E)-8-amino-oct-2-enoic acid]: in series [1], the inhibition at 20 pg/mL came out at 31%, the inhibition at 0.0002 µg/mL is 33%, the inhibition at 0.002 µg/mL turned out to be 26% and the inhibition at 0.02 µg/mL came to 32%.
For `Cl.NCCCCCC/C=C/C(=O)O` [Compound No. 8, (E)-9-amino-non-2-enoic acid], the melting point (commonly the temperature of the solid-liquid transition) is 104 °C. In addition, in series [1], the inhibition at 20 pg/mL was 22%, the inhibition at 0.0002 µg/mL stood at 25%, the inhibition at 0.002 µg/mL amounted to 20% and the inhibition at 0.02 µg/mL came to 19%.
For `Cl.NCCCCCCC=C(F)C(=O)O` [Compound No. 9, 9-amino-2-fluoro-non-2-enoic acid] the same measures were 120 °C, 18%, 20%, 23% and 18%.
The matching figures for `Cl.NCCCCCCCCCCCC=C(F)C(=O)O` [Compound No. 10, 14-amino-2-fluoro-tetradec-2-enoic acid]: 148.5 °C, 20%, 25%, 18% and 15%.
Regarding `Cl.NCCCCCCCCCCC/C=C/C(=O)O` [Compound No. 11, (E)-14-amino-tetradec-2-enoic acid], the melting point was 153 °C. In series [1], the inhibition at 20 pg/mL amounted to 20%, the inhibition at 0.0002 µg/mL came to 19%, the inhibition at 0.002 µg/mL was 22% and the inhibition at 0.02 µg/mL came to 19%. Moreover, the EC50 in the series with production of IL8 came out at 11 µg/mL. Also, the “effect on the synthesis of melanin, in words” value in the series on B16-F10 line (10 μg/mL) was “without any effect”. Moreover, the inhibition at 30 µg/mL with B16-F10 line (read-out: inhibition of the amount of extra-cellular melanin) came to 30%. In addition, the inhibition at 30 µg/mL with B16-F10 line (read-out: inhibition of the amount of intra-cellular melanin) is ~45%.
For the compound `NCCC/C=C(\F)C(=O)O` [compound 3, (Z)-6-amino-2-fluoro-hex-2-enoic acid], in series [1], the inhibition at 20 pg/mL amounted to 15%, the inhibition at 0.0002 µg/mL was found to be 11%, the inhibition at 0.002 µg/mL worked out at 5% and the inhibition at 0.02 µg/mL came to 1%.
With `NCCCC/C=C(\F)C(=O)O` [compound 6, (Z)-7-amino-2-fluoro-hept-2-enoic acid], in series [1], the inhibition at 20 pg/mL is 31%, the inhibition at 0.0002 µg/mL was 30%, the inhibition at 0.002 µg/mL worked out at 21% and the inhibition at 0.02 µg/mL came to 26%. The “increase of the amount of intracellular melanin” value with B16-F10 line (3, 10 and 30 μg/mL) is “about 100%”.
